Patent publication US12612360B2 (Sanofi, priority 2020, dated 2026)

Molecular target: T1, ERα (Homo sapiens, UniProt P03372)
T1 construct: host or cells: MCF7
T1 sequence (P03372 1-595): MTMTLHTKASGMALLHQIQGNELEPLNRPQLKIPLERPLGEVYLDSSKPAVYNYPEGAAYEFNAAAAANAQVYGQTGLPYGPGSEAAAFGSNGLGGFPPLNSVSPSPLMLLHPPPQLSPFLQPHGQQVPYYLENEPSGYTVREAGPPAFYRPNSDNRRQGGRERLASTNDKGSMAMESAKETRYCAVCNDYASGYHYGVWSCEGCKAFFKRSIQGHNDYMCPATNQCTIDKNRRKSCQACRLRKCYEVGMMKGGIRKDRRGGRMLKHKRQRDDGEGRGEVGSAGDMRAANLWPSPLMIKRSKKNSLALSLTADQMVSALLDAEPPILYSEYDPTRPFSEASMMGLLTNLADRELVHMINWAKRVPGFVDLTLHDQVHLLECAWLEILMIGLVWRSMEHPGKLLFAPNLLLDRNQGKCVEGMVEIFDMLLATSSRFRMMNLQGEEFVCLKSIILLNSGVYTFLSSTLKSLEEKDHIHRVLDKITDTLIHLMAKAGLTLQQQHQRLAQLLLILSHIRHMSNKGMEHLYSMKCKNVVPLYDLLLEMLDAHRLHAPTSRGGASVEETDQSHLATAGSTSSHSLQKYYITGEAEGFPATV
Assay: Estrogen receptor degradation activity: breast cancer cell ERα in cell western assay (MCF7 cells)
Assay type: cell-based
Settings: for % Degradation At 0.3 μM: 4 hours, relative to fulvestrant 0.1 μM positive control; for DC50: 4 hours post compound addition, concentration which degrades 50% of the estrogen receptor, read-out: Degradation IC50
Description: Test: Estrogen Receptor Degradation Activity Said test involves measuring the in vitro degradation activity of the compounds of the Table 1a. The measurements of the degradation activities were made using a breast cancer cell ERα in cell western assay as described hereunder. MCF7 cells (ATCC) were seeded in 384 wells microplate (collagen coated) at a concentration of 10000 cells/30 μL per well in red phenol free MEM alpha medium (invitrogen) containing 5% charcoal dextran striped FBS. The following day, 9 points serial 1:5 dilution of each compound was added to the cells in 2.5 μL at final concentrations ranging from […] (in table 2), or 0.1 μM for fulvestrant (using as positive control). At 4 hours post compound addition the cells were fixed by adding 25 μL of formalin (final concentration 5% formalin containing 0.1% triton) for 10 minutes at room temperature and then washed twice with PBS. Then, 50 μL of LI-COR blocking buffer containing 0.1% Triton was added to plate for 30 minutes at room temperature. LI-COR blocking buffer was removed and cells were incubated overnight at cold room with 50 μL anti-ER rabbit monoclonal antibody (Thermo scientific MA1-39540) diluted at 1:1000 in LI-COR blocking buffer containing 0.1% tween-20. Wells which were treated with blocking buffer but no antibody were used as background control. Wells were washed twice with PBS (0.1% tween-20) and incubated at 37° C. for 60 minutes in LI-COR (0.1% tween-20) containing goat anti-rabbit antibody Alexa 488 (1:1000) and Syto-64 a DNA dye (2 μM final concentration). Cells were then washed 3 times in PBS and scanned in ACUMEN explorer (TTP-Labtech). Integrated intensities in the green fluorescence and red fluorescence were measured to determine the levels of ERα and DNA respectively. The degradation activity with respect to estrogen receptors in this test is given by the concentration which degrades 50% of the estrogen receptor (or IC50) in nM. […] DMSO−fulvestrant)).

% Degradation At 0.3 μM [%]	DC50 [nM]	Structure (SMILES)
89	1.8	CC1CCC(C2=C(c3ncc(C=C4CN(CCCF)C4)cc3F)c3ccc(C(=O)O)cc3CCC2)CC1 (mixture of isomers) [Example 188, 9-(3-fluoro-5-((1-(3-fluoropropyl)azetidin-3-ylidene)methyl)pyridin-2-yl)-8-(4-methylcyclohexyl)-6,7-dihydro-5H-benzo[7]annulene-3-carboxylic acid]
95	0.6	CC1CCc2cc(C(=O)O)ccc2C(c2ccc(C=C3CN(CCCF)C3)cc2)=C1c1ccc(Cl)cc1Cl (racemic) [Example 166, 8-(2,4-Dichlorophenyl)-9-(4-((1-(3-fluoropropyl)azetidin-3-ylidene)methyl)phenyl)-7-methyl-6,7-dihydro-5H-benzo[7]annulene-3-carboxylic acid, racemic mixture]
90	0.7	O=C(O)c1ccc2c(c1)CCCC([C@H]1C[C@@H]1c1ccccc1)=C2c1ccc(C=C2CN(CCCF)C2)cc1 (racemic) [Example 173, 9-(4-((1-(3-fluoropropyl)azetidin-3-ylidene)methyl)phenyl)-8-((trans)-2-phenylcyclopropyl)-6,7-dihydro-5H-benzo[7]annulene-3-carboxylic acid]
86	1.6	O=C(O)c1ccc2c(c1)CCCC([C@@H]1C[C@H]1C1CCC(F)(F)CC1)=C2c1ccc(C=C2CN(CCCF)C2)cc1 (racemic) [Example 187, 8-(trans-2-(4,4-difluorocyclohexyl)cyclopropyl)-9-(4-((1-(3-fluoropropyl)azetidin-3-ylidene)methyl)phenyl)-6,7-dihydro-5H-benzo[7]annulene-3-carboxylic acid]
88	0.4	CC1(C)CCCC(C2=C(c3ccc(C=C4CN(CCCF)C4)cc3)c3ccc(C(=O)O)cc3CCC2)C1 (single isomer, unassigned) [Example 171, 8-(3,3-dimethylcyclohexyl)-9-(4-((1-(3-fluoropropyl)azetidin-3-ylidene)methyl)phenyl)-6,7-dihydro-5H-benzo[7]annulene-3-carboxylic acid]
89	0.4	CC1(C)CCCC(C2=C(c3ccc(C=C4CN(CCCF)C4)cc3)c3ccc(C(=O)O)cc3CCC2)C1 (single isomer, unassigned) [Example 172, 8-(3,3-dimethylcyclohexyl)-9-(4-((1-(3-fluoropropyl)azetidin-3-ylidene)methyl)phenyl)-6,7-dihydro-5H-benzo[7]annulene-3-carboxylic acid]
91	1.4	CC1CCc2cc(C(=O)O)ccc2C(c2ccc(C=C3CN(CCCF)C3)cc2)=C1c1ccc(Cl)cc1 (single isomer, unassigned) [Example 179, 8-(4-chlorophenyl)-9-(4-((1-(3-fluoropropyl)azetidin-3-ylidene)methyl)phenyl)-7-methyl-6,7-dihydro-5H-benzo[7]annulene-3-carboxylic acid]
90	0.4	CC1CCc2cc(C(=O)O)ccc2C(c2ccc(C=C3CN(CCCF)C3)cc2)=C1c1ccc(Cl)cc1 (single isomer, unassigned) [Example 184, 8-(4-chlorophenyl)-9-(4-((1-(3-fluoropropyl)azetidin-3-ylidene)methyl)phenyl)-7-methyl-6,7-dihydro-5H-benzo[7]annulene-3-carboxylic acid]
96	0.4	O=C(O)c1ccc2c(c1)CCCC(c1ccc(Cl)cc1Cl)=C2c1ccc(C=C2CN(CCCF)C2)cc1 [Example 1, 8-(2,4-Dichlorophenyl)-9-(4-((1-(3-fluoropropyl)azetidin-3-ylidene)methyl)phenyl)-6,7-dihydro-5H-benzo[7]annulene-3-carboxylic acid]
92	0.6	COc1nccc(C2=C(c3ccc(C=C4CN(CCCF)C4)cc3)c3ccc(C(=O)O)cc3CCC2)c1F [Example 2, 8-(3-fluoro-2-methoxypyridin-4-yl)-9-(4-((1-(3-fluoropropyl)azetidin-3-ylidene)methyl)phenyl)-6,7-dihydro-5H-benzo[7]annulene-3-carboxylic acid]
90	0.3	Cc1cc(C(F)(F)F)ccc1C1=C(c2ccc(C=C3CN(CCCF)C3)cc2)c2ccc(C(=O)O)cc2CCC1 [Example 3, 9-(4-((1-(3-fluoropropyl)azetidin-3-ylidene)methyl)phenyl)-8-(2-methyl-4-(trifluoromethyl)phenyl)-6,7-dihydro-5H-benzo[7]annulene-3-carboxylic acid]
86	0.8	O=C(O)c1ccc2c(c1)CCCC(c1cc(F)cc3c1CCC3)=C2c1ccc(C=C2CN(CCCF)C2)cc1 [Example 4, 8-(6-fluoro-2,3-dihydro-1H-inden-4-yl)-9-(4-((1-(3-fluoropropyl)azetidin-3-ylidene)methyl)phenyl)-6,7-dihydro-5H-benzo[7]annulene-3-carboxylic acid]
88	1	O=C(O)c1ccc2c(c1)CCCC(c1ccc(Cl)c(C(F)(F)F)c1)=C2c1ccc(C=C2CN(CCCF)C2)cc1 [Example 5, 8-(4-chloro-3-(trifluoromethyl)phenyl)-9-(4-((1-(3-fluoropropyl)azetidin-3-ylidene)methyl)phenyl)-6,7-dihydro-5H-benzo[7]annulene-3-carboxylic acid]
92	0.4	O=C(O)c1ccc2c(c1)CCCC(c1c(F)ccc3c1CCC3)=C2c1ccc(C=C2CN(CCCF)C2)cc1 [Example 6, 8-(5-fluoro-2,3-dihydro-1H-inden-4-yl)-9-(4-((1-(3-fluoropropyl)azetidin-3-ylidene)methyl)phenyl)-6,7-dihydro-5H-benzo[7]annulene-3-carboxylic acid]
90	0.6	O=C(O)c1ccc2c(c1)CCCC(c1ccc3c(c1F)CCC3)=C2c1ccc(C=C2CN(CCCF)C2)cc1 [Example 7, 8-(4-fluoro-2,3-dihydro-1H-inden-5-yl)-9-(4-((1-(3-fluoropropyl)azetidin-3-ylidene)methyl)phenyl)-6,7-dihydro-5H-benzo[7]annulene-3-carboxylic acid]
86	0.4	O=C(O)c1ccc2c(c1)CCCC(c1ccc3c(c1)CC3)=C2c1ccc(C=C2CN(CCCF)C2)cc1 [Example 8, 8-(Bicyclo[4.2.0]octa-1,3,5-trien-3-yl)-9-(4-((1-(3-fluoropropyl)azetidin-3-ylidene)methyl)phenyl)-6,7-dihydro-5H-benzo[7]annulene-3-carboxylic acid]
90	0.6	O=C(O)c1ccc2c(c1)CCCC(c1cccc3c1CCC3(F)F)=C2c1ccc(C=C2CN(CCCF)C2)cc1 [Example 9, 8-(1,1-difluoro-2,3-dihydro-1H-inden-4-yl)-9-(4-((1-(3-fluoropropyl)azetidin-3-ylidene)methyl)phenyl)-6,7-dihydro-5H-benzo[7]annulene-3-carboxylic acid]
90	0.2	O=C(O)c1ccc2c(c1)CCCC(c1cccc3c1CCC3)=C2c1ccc(C=C2CN(CCCF)C2)cc1 [Example 10, 8-(2,3-dihydro-1H-inden-4-yl)-9-(4-((1-(3-fluoropropyl)azetidin-3-ylidene)methyl)phenyl)-6,7-dihydro-5H-benzo[7]annulene-3-carboxylic acid]

Structure (SMILES)	% Degradation At 0.3 μM [%]	DC50 [nM]
CC1(C)CCCC(C2=C(c3ncc(C=C4CN(CCCF)C4)cc3F)c3ccc(C(=O)O)cc3CCC2)C1 (racemic) [Example 186, 8-(3,3-Dimethylcyclohexyl)-9-(3-fluoro-5-((1-(3-fluoropropyl)azetidin-3-ylidene)methyl)pyridin-2-yl)-6,7-dihydro-5H-benzo[7]annulene-3-carboxylic acid, racemic mixture]	92	1
